Laboratory results from US8399493B2, “Pyridinone derivatives and their use as positive allosteric modulators of mGluR2-receptors” (Janssen Pharmaceuticals, Inc., priority 2004, dated 2013).

How the values were obtained:
[1] = molecular target: T1, native rat mGluR2 (Rattus norvegicus, UniProt P31421); assay: [35S]GTPγS binding assay using cortical rat brain membranes; format: biochemical; conditions: selective mGluR2 agonist such as LY379268; rat cortical membranes; 3 or 10 μM of positive allosteric modulator
T1 construct: from tissue; host or cells: rat brain cortex membranes (Sprague-Dawley rats, Charles River Laboratories)
Text: The [^35S]GTPγS binding is a functional membrane-based assay used to study G-protein coupled receptor (GPCR) function. This method is using a binding assay to assess the initial step in receptor-mediated G protein activation in membranes prepared from cells expressing recombinant GPCR or using membranes from discrete area of the rat brain. In brief, the assay is measuring the activation of G proteins by catalyzing the exchange of guanosine 5′-diphosphate (GDP) by guanosine 5′-triphosphate (GTP) at the α subunit. The GTP-bounded G proteins dissociate into two subunits, Gα-GTP and Gβγ, which in turn regulate intracellular enzymes and ion channels. GTP is rapidly hydrolysed by the Gα-subunit (GTPases) and the G protein is deactivated and ready for new GTP exchange cycle (Harper (1998) Curr Protoc Pharmacol 2.6.1-10, John Wiley & Sons, Inc.). [^35S]GTPγS, a non-hydrolyzed analogue of GTP, is used for this purpose.
This method is widely used to study receptor activation of G protein in membranes prepared from rat brain tissue, including mGluR2 receptors (Schaffhauser et al 2003, Pinkerton et al, 2004). mGluR2 receptors are expressed in the rat brain cortex (Mutel et al (1998) J. Neurochem. 71:2558-64; Schaffhauser et al (1998) Mol. Pharmacol. 53:228-33) and are coupled to Gαi-protein, a preferential coupling for this method.
[^35S]GTPγS binding assay using cortical rat brain membranes preparation was used and adapted from Schaffhauser et al ((2003) Mol. Pharmacol. 4:798-810) for the detection of the positive allosteric modulator properties of the compounds of this invention on native rat mGluR2. In order to eliminate the possible interference with group III Gαi-protein coupled mGluRs (mGluR4, mGluR7, mGluR8; mGluR6 is not expressed in the cortex (Laurie et al (1997) Neuropharmacol. 36:145-52)), the potentiation of the response to a selective mGluR2 agonist, such as DCG-IV (Cartmell et al. (1998) Br. J. Pharmacol. 123(3):497-504) or LY379268 (Monn et al. (1999) J. Med. Chem 42:1027-40), by compounds described in the present invention was performed.
Cortices were dissected out from brains of 200-300 g Sprague-Dawley rats (Charles River Laboratories, L'Arbresle, France). Tissues were homogenized in 6 volumes (vol/wt) of 10% sucrose at 4° C. using a glass-teflon homogenizer. The homogenate was centrifuged at 1250 g for 10 min, and the supernatant was centrifuged at 40,000 g for 20 min (4° C.). The pellet was resuspended in 25 ml water using a Polytron disrupter (Kinematica AG, Luzern, Switzerland) and centrifuged for 10 min at 3000 g. (4° C.). The supernatant was centrifuged at 40,000 g for 20 min (4° C.). The supernatant was discarded and the pellet washed twice by resuspension in 10 volumes 5 mM HEPES-KOH, pH 7.4. The homogenate was frozen and thawed twice and centrifuged at 40,000 g for 20 min. The final pellet was resuspended in 5 mM HEPES-KOH, pH 7.4 and stored at −80° C. before its use. Protein concentration was determined by the Bradford method (Bio-Rad protein assay, Reinach, Switzerland) with bovine serum albumin as standard.
Measurement of mGluR2 positive allosteric modulators properties in rat cortical membranes was performed as follows: rat cortical membrane (1.5 μg) were incubated in 96-well microplates for 15 min at 30° C. in assay buffer (50 mM HEPES pH 7.4, 100 mM NaCl, 5 mM MgCl2, 10 μM GDP, 10 μg/ml saponin, EGTA 0.2 mM) with increasing concentrations of positive allosteric modulator (from 1 nM to 10 μM) and a minimal concentration of DCG-IV or LY379268, a selective mGluR2 agonist, that has been determined in previous experiments and that corresponds to the EC20, a concentration that gives 20% of the maximal response of the agonist, and is in accordance to published data (Pin et al. (1999) Eur. J. Pharmacol. 375:277-294). […]

T1 sequence (P31421 19-872): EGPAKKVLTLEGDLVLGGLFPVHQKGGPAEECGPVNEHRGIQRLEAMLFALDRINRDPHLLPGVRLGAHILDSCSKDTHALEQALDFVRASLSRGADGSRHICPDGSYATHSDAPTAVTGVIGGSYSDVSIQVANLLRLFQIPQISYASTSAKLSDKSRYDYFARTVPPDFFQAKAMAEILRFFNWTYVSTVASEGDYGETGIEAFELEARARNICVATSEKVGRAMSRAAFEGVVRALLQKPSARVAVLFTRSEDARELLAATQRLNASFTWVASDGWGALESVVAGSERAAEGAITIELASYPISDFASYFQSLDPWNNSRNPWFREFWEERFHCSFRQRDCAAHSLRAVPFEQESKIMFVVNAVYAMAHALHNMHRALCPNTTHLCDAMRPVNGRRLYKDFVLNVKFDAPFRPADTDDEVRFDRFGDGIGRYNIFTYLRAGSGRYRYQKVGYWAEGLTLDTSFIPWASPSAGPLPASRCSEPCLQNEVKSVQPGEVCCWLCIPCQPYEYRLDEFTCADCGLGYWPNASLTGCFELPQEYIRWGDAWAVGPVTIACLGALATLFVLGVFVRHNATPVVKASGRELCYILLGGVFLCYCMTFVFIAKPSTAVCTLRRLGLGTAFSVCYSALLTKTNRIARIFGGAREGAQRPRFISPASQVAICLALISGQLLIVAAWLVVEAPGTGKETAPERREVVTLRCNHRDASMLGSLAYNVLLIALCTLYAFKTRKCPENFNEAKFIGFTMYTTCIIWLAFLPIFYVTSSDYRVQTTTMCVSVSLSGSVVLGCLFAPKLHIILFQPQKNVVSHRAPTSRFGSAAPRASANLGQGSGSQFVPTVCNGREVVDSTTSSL

Compound | melting point [°C] | Activity: left-ward shift of agonist mGluR2 concentration-response curve [1]
O=C(O)CCc1ccc(-c2ccc(=O)n(Cc3ccc(Cl)cc3)c2)cc1 [2-32] | 185 | ++ (left-ward shift of agonist mGluR2 concentration-response curve [2- to 3.5-fold])
CS(=O)(=O)Nc1cccc(-c2ccc(=O)n(Cc3ccc(Cl)cc3)c2)c1 [2-55] | 169 | ++ (left-ward shift of agonist mGluR2 concentration-response curve [2- to 3.5-fold])
Cc1ccc(-c2ccc(=O)n(Cc3ccc(Cl)cc3)c2)nc1 [2-61] | 135 | ++ (left-ward shift of agonist mGluR2 concentration-response curve [2- to 3.5-fold])
COc1cccc(Cc2ccc(=O)n(Cc3ccc(Cl)cc3)c2)c1 [3-02, 5-(3-Methoxybenzyl)-1-(4-chlorobenzyl)pyridin-2(1H)-one] |  | ++ (left-ward shift of agonist mGluR2 concentration-response curve [2- to 3.5-fold])
COc1ccc(-c2ccc(=O)n(Cc3ccc(Cl)cc3)c2)cc1 [4-20] | 142 | +++ (left-ward shift of agonist mGluR2 concentration-response curve [>3.5])
COc1ccc(-c2ccc(=O)n(Cc3ccc(C(F)(F)F)nc3)c2)cc1.Cl [4-47, 5-(4-Methoxyphenyl)-1-((6-(trifluoromethyl)pyridin-3-yl)methyl)-pyridin-2(1H)-one hydrochloride] | 168 | +++ (left-ward shift of agonist mGluR2 concentration-response curve [>3.5])
COc1ccc(-c2ccc(=O)n(Cc3ccc(F)c(F)c3)c2)cn1 [6-16] | 120 | ++ (left-ward shift of agonist mGluR2 concentration-response curve [2- to 3.5-fold])
O=c1ccc(-c2ccc(OCc3nn[nH]n3)cc2)cn1Cc1ccc(Cl)cc1F [6-65, 5-(4-((2H-Tetrazol-5-yl)methoxy)phenyl)-1-(4-chloro-2-fluorobenzyl)pyridin-2(1H)-one] | 197 | +++ (left-ward shift of agonist mGluR2 concentration-response curve [>3.5])
CS(=O)(=O)NCc1ccc(-c2ccc(=O)n(Cc3ccc(Cl)cc3F)c2)cc1 [6-73] | 165 | ++ (left-ward shift of agonist mGluR2 concentration-response curve [2- to 3.5-fold])
Cl.O=c1ccc(C#Cc2cccnc2)cn1Cc1cccc(F)c1 [7-02, 1-(3-Fluorobenzyl)-5-(2-(pyridin-3-yl)ethynyl)pyridin-2(1H)-one hydrochloride] | 179 | + (left-ward shift of agonist mGluR2 concentration-response curve [<2])
COCCc1cc(=O)n(Cc2ccc(Cl)cc2)cc1-c1ccc(OC)cc1 [9-17, 1-(4-Chlorobenzyl)-4-(2-methoxyethyl)-5-(4-methoxyphenyl)pyridin-2(1H)-one] |  | + (left-ward shift of agonist mGluR2 concentration-response curve [<2])
COc1ccc(-c2cn(Cc3ccc(Cl)cc3F)c(=O)cc2OC)cc1 [9-18, 1-(4-Chloro-2-fluorobenzyl)-4-methoxy-5-(4-methoxyphenyl)pyridin-2(1H)-one] |  | + (left-ward shift of agonist mGluR2 concentration-response curve [<2])
CC(C)CCn1ccc(-c2cccs2)c(C#N)c1=O [10-28, 1,2-Dihydro-1-isopentyl-2-oxo-4-(thiophen-2-yl)pyridine-3-carbonitrile] | 123 | +++ (left-ward shift of agonist mGluR2 concentration-response curve [>3.5])
COc1ccc(-c2ccn(Cc3cccc(F)c3)c(=O)c2)cc1 [11-03, 1-(3-Fluorobenzyl)-4-(4-methoxyphenyl)pyridin-2(1H)-one] | 114 | + (left-ward shift of agonist mGluR2 concentration-response curve [<2])
COc1ccc(-c2cn(Cc3ccc(Cl)cc3)c(=O)cn2)cc1 [12-06, 1-(4-Chlorobenzyl)-5-(4-methoxyphenyl)pyrazin-2(1H)-one] | 133 | + (left-ward shift of agonist mGluR2 concentration-response curve [<2])
O=c1c2ccccc2ccn1Cc1ccc(F)cc1 [13-01, 2-(4-Fluorobenzyl)isoquinolin-1(2H)-one] | 107 | ++ (left-ward shift of agonist mGluR2 concentration-response curve [2- to 3.5-fold])
CCCn1ccc2c(NCCc3ccc(O)cc3)cccc2c1=O [13-05, 5-(4-Hydroxyphenethylamino)-2-propylisoquinolin-1(2H)-one] | 170 to 171 | +++ (left-ward shift of agonist mGluR2 concentration-response curve [>3.5])
O=c1ccc2ccccc2n1Cc1ccc(Cl)cc1 [15-04, 1-(4-Chlorobenzyl)quinolin-2(1H)-one] | 139 | + (left-ward shift of agonist mGluR2 concentration-response curve [<2])
COc1ccc(OCc2ccc(=O)n(Cc3ccc(Cl)cc3)c2)cc1 [16-02, 1-(4-Chlorobenzyl)-5-((4-methoxyphenoxy)methyl)pyridin-2(1H)-one] | 114 | 
O=c1ccc(COc2ccccc2)cn1Cc1ccc(F)c(F)c1 [16-03, 1-(3,4-Difluorobenzyl)-5-(phenoxymethyl)pyridin-2(1H)-one] | 89 | 
O=c1ccc(COc2ccccc2)cn1Cc1ccc(Cl)cc1F [16-04] | 86 | 
O=c1ccc(COc2ccccc2)cn1Cc1ccc(C(F)(F)F)nc1 [16-07] | 119 to 121 | ++ (left-ward shift of agonist mGluR2 concentration-response curve [2- to 3.5-fold])
